pIC50: −log10 of the molar value. Like-named read-outs stand apart in the source and are kept apart here.

Data set [1] deals with T1, ATM protein immunoprecipitated from HeLa cell nuclear extract (Homo sapiens, UniProt Q13315).
T1 construct: ATM protein was immunoprecipitated from HeLa cell nuclear extract; endogenous in cells; host or cells: HeLa cell nuclear extract (immunoprecipitate)
The data set can be described thus: ATM inhibition assay (GSTp53N66 serine 15 phosphorylation, chemiluminescence). The following applies: concentrations between 100 and 1 μM. The format is biochemical. As for the experimental part:
In order to assess the inhibitory action of the compounds against ATM in vitro, the following assay was used to determine IC50 values.
ATM protein was immunoprecipitated from HeLa cell nuclear extract using rabbit polyclonal antisera raised to the C-terminal ˜500 amino-acid residues of the human ATM protein. […] 10 μl of immunoprecipitated ATM in Buffer C (50 mM Hepes, pH 7.4, 6 mM MgCl2, 150 mM NaCl, 0.1 mM sodium orthovanadate, 4 mM MnCl2, 0.1 mM dithiothreitol, 10% glycerol) was added to 32.5 μl of buffer C containing 1 μg of the ATM substrate GSTp53N66 in a V-bottomed 96 well polypropylene plate. The GSTp53N66 substrate is the amino terminal 66 amino acid residues of human wild type p53 fused to glutathione S-transferase. […] Varying concentrations of inhibitor were then added. […] After 10 minutes of incubation at 37° C., the reactions were initiated by the addition of 5 μl of 50 μM Na-ATP. After 1 h with shaking at 37° C., 150 μl of phosphate buffered saline (PBS) was added to the reaction and the plate centrifuged at 1500 rpm for 10 minutes. 5 μl of the reaction was then transferred to a 96 well opaque white plate containing 45 μl of PBS to allow the GSTp53N66 substrate to bind to the plate wells. The plate was covered and incubated at room temperature for 1 h with shaking before discarding the contents. The plate wells were washed twice by the addition of PBS prior to the addition of 3% (w/v) bovine serum albumin (BSA) in PBS. The plate was incubated at room temperature for 1 h with shaking before discarding the contents and washing twice with PBS. To the wells, 50 μl of a 1:10, 000 dilution of primary phosphoserine-15 antibody (Cell Signaling Technology, #9284L) in 3% BSA/PBS was added to detect the phosphorylation event on the serine 15 residue of p53 elicited by the ATM kinase. […] The wells were then washed four times with PBS before the addition of chemiluminescence reagent (NEN Renaissance, NEL105). The plate was then shaken briefly, covered with a transparent plate seal and transferred to a TopCount NXT for chemiluminescent counting. Counts per second, following a one second counting time, were recorded for each reaction. The inhibition of ATM activity by compounds was calculated as described above for the DNA-PK assay.
(§1) The selectivity was determined by the following equation: […]

In data set [2] the target is T2, Baculoviral recombinant GST-fused PI 3-kinase (p110α/p85α) (Homo sapiens, UniProt P42336).
T2 construct: GST; made in house; host or cells: Sf9 insect cells (baculovirus)
T2 sequence (P42336 whole entry, species assumed, the tested form may be a part): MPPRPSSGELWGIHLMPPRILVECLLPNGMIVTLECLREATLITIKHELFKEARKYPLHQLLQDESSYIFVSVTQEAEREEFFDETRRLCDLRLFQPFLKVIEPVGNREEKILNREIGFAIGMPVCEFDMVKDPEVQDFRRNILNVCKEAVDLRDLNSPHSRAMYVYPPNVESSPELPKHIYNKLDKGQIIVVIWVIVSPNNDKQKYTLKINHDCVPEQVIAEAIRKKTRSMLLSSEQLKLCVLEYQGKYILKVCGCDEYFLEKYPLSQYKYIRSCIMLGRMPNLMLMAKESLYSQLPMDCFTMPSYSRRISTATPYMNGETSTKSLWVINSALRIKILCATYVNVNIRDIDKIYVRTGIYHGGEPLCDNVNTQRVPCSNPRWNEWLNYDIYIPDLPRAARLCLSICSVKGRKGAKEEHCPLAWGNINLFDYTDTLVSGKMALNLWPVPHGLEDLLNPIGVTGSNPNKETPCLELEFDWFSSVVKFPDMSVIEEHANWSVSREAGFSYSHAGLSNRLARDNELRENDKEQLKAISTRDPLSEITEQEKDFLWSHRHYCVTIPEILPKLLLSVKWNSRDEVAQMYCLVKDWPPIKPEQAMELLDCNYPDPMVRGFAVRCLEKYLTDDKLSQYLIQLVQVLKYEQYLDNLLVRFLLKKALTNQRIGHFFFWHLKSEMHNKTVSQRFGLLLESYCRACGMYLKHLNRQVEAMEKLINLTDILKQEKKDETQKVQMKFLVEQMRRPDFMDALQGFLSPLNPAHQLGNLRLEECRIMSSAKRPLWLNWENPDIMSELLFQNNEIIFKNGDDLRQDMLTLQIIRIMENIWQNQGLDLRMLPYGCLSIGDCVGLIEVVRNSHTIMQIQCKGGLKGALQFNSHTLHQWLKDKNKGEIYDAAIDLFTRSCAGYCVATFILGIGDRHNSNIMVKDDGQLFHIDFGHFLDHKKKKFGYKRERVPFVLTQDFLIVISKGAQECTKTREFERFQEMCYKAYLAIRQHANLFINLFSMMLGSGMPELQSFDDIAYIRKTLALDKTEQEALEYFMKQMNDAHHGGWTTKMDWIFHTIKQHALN
T2 sequence (P27986 whole entry partner, species assumed, the tested form may be a part): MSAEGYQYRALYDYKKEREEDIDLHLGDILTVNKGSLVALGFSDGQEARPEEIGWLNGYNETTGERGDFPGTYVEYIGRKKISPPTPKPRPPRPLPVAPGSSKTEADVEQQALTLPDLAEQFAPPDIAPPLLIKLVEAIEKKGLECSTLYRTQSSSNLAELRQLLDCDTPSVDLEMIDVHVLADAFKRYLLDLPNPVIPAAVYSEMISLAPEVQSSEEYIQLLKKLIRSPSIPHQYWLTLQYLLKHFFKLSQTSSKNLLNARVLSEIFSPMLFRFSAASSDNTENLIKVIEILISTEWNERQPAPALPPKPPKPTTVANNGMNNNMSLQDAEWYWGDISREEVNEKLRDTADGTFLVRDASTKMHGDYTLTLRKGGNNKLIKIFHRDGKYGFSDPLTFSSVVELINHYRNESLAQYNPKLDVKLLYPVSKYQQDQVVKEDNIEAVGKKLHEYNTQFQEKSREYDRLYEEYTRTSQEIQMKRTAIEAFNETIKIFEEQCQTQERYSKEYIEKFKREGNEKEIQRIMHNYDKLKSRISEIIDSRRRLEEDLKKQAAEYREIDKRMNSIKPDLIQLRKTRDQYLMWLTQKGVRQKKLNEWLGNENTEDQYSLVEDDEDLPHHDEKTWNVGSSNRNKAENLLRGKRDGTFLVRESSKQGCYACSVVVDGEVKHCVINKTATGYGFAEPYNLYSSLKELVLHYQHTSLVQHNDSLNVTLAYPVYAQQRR
The data set can be described thus: PI 3-kinase inhibition assay. The format is biochemical. As for the experimental part:
In order to assess the inhibitory action of the compounds against PI 3-kinase in vitro, the following assay was used to determine IC50 values.
PI 3-kinase (1 μl) was diluted in reaction buffer (89 μl of 50 mM Hepes pH 7.5, 150 mM NaCl, 0.1 mM Sodium Orthovanadate, containing 20 μg of phosphatidylinositol) and varying concentrations of inhibitor compound added. […] Reactions were incubated for a further 20 minutes at 37° C., before quenching with the addition of 400 μl of chloroform/methanol (1:1). Reactions were acidified by the addition of 200 μl of 1M HCl, before separation of the organic and aqueous phases by centrifugation at 10,000 g for 30 seconds. The organic phase was transferred to a fresh tube and washed twice with 150 μl of 1M hydrochloric acid/methanol (1:1), discarding the aqueous phase. The washed reaction product was then placed in a white 96-well plate with 100 μl of scintillation fluid and transferred to a TopCount NXT for scintillation counting. Counts per minute, following a one minute counting time, were recorded for each reaction. The inhibition of PI 3-kinase activity by compounds was calculated as described above for the DNA-PK assay.
as §1

Data set [3] concerns the target T3, Mammalian DNA-PK, isolated from Hela cell nuclear extract (Homo sapiens, UniProt P78527).
T3 construct: Mammalian DNA-PK, isolated from Hela cell nuclear extract; endogenous in cells; host or cells: HeLa cell nuclear extract
The data set can be described thus: DNA-PK inhibition assay (33P-ATP, phosphocellulose filter, scintillation counting). In kind it is biochemical. The following applies: for inhibition at 1 µM: read-out: inhibition of DNA-PK at 1 μM; for inhibition at 2 µM: read-out: inhibition of DNA-PK at 2 μM, single concentration 2 μM. As for the experimental part: In order to assess the inhibitory action of the compounds against DNA-PK in vitro, the following assay was used.
The total assay volume per well was 40 μl.
After 10 minutes of incubation at 30° C. the reactions were initiated by the addition of Na-ATP (50 μM final), ^33P-γATP and a 30mer double stranded DNA oligonucleotide (10 ng/μl) in a volume of 10 μl. Designated positive and negative reaction wells were done in combination with compound wells (unknowns) in order to calculate % enzyme activities. The plates were then shaken for 2 minutes and incubated at 30° C. for 45 minutes.
Following the incubation, the reactions were quenched by the addition of 50 μl 30% acetic acid to each well. The plates were then shaken for 5 minutes and the contents of each plate (80 μl from each well) transferred over to a 96 well Polyfiltronics filtration plate, containing P81-phosphocellulose membrane (TRADE MARK)(Whatman, UK). The solutions were vacuum pumped through the membrane and each well membrane washed four times using 300 μl of 15% acetic acid. The well membranes were then air dried and 20 μl of scintillant was added to each well.
The plates were transferred to a TopCount NXT (TRADE MARK) (Packard, UK) for scintillation counting. Values recorded are counts per minute (cpm) following a 1 minute counting time for each well.
The enzyme activity for each compound is then calculated using the following equation: […]
In Table 1 below, the results are IC50 values (the concentration at which 50% of the enzyme activity is inhibited). These are determined over a range of different concentrations, normally from 10 μM down to 0.01 μM. Such IC50 values are used as comparative values to identify increased compound potencies.

The next data set deals with PI 3-kinase. The following applies: literature, stated the same as for DNA-PK; cited from earlier work.
The test system of data set [4] is mammalian cells in culture. To be noted: literature; cited from earlier work.

T1 sequence (Q13315 whole entry): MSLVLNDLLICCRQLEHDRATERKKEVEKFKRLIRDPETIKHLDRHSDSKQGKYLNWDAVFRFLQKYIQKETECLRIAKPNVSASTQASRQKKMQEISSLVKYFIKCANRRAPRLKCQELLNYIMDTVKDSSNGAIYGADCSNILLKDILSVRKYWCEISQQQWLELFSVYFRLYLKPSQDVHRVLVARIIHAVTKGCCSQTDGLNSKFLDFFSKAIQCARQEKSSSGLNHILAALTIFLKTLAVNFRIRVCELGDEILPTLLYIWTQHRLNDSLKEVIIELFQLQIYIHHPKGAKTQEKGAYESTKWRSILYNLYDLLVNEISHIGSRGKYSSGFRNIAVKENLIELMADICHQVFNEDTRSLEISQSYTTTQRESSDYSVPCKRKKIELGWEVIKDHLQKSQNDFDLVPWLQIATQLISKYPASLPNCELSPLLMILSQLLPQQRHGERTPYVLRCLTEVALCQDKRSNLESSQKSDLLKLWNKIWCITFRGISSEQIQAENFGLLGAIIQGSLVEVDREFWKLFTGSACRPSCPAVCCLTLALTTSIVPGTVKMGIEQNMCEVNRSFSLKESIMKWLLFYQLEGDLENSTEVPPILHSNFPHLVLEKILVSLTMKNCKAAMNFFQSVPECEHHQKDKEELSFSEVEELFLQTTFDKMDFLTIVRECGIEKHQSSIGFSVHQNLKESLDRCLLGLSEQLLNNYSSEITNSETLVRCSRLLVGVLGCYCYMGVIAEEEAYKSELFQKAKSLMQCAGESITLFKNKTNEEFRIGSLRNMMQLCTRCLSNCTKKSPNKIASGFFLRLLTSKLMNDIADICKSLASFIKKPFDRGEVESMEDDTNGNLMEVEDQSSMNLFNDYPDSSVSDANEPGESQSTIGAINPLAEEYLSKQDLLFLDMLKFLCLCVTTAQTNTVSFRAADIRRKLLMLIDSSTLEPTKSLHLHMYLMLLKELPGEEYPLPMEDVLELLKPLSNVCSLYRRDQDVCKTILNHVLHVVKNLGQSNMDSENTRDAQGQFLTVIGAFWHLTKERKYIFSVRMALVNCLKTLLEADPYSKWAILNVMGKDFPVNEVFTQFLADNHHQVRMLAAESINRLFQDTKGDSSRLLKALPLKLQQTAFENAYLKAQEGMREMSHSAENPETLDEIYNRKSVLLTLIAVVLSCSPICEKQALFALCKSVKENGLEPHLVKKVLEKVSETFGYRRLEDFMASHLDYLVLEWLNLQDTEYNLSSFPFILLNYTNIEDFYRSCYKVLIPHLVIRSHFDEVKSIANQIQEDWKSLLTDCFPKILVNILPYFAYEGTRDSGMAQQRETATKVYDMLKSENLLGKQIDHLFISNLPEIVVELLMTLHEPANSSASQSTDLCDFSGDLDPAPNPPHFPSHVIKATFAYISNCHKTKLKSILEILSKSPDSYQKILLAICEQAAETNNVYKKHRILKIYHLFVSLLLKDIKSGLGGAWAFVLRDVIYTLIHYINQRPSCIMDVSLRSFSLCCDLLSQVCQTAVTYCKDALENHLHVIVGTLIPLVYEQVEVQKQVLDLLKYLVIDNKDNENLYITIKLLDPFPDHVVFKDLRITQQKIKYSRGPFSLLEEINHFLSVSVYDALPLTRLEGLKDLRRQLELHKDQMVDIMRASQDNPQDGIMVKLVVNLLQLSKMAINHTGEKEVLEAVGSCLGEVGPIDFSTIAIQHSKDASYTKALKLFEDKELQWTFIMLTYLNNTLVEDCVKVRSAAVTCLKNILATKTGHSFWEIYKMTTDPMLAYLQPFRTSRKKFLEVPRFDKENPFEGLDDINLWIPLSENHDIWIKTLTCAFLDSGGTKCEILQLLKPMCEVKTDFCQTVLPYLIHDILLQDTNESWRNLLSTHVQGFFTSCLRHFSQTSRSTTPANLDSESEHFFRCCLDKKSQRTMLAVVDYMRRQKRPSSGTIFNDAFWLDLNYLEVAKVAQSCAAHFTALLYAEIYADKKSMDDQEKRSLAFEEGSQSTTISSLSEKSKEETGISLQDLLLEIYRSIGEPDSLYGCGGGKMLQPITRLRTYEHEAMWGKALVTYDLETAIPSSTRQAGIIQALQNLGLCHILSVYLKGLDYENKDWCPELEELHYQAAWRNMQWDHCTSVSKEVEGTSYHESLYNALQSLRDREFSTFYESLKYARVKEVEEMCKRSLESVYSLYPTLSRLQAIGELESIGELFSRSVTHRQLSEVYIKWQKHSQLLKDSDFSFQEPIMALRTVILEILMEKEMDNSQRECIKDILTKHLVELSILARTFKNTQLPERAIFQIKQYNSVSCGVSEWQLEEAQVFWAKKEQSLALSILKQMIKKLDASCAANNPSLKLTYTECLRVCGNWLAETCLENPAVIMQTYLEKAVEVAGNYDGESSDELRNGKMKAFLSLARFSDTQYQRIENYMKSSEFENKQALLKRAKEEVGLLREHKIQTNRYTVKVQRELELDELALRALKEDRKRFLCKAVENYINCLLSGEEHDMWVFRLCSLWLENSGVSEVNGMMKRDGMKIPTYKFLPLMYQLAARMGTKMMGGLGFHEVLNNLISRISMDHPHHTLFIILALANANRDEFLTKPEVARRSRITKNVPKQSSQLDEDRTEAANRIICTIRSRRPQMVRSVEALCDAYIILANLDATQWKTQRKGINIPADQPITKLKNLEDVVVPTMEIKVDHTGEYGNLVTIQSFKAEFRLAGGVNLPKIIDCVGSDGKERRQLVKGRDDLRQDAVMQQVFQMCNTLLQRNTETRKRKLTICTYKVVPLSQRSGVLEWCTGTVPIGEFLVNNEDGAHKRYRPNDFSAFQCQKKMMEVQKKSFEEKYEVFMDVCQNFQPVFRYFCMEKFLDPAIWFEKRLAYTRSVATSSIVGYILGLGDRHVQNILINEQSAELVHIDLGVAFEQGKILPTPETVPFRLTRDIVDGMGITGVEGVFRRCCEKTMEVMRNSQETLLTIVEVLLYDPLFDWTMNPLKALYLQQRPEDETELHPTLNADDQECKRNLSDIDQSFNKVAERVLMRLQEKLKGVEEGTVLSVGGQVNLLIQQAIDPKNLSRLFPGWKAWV

A word on the pIC50: it is −log10 of the IC50, conventionally taken in molar units. One may read the melting point as the temperature, or range, at which the solid turns liquid. With `O=c1cc(-c2ccccc2)sc(N2CCOCC2)c1` [Compound 1, 2-Morpholin-4-yl-6-phenyl-thiopyran-4-one], the melting point was in the range of 160 to 161 °C. This compound showed a pIC50 in data set [1] of less than 4.00. In addition, the pIC50 in data set [2] is 5.00.

`CC(C)(C)c1ccc(-c2cc(=O)cc(N3CCOCC3)s2)cc1` [Compound 2, 2-(4-tert-Butyl-phenyl)-6-morpholin-4-yl-thiopyran-4-one] returned a melting point of 172 to 173 °C. This compound had a pIC50 in data set [1] of less than 4.00. In data set [2], the pIC50 is 4.40.

With `COc1ccc(-c2cc(=O)cc(N3CCOCC3)s2)cc1` [Compound 3, 2-(4-Methoxy-phenyl)-6-morpholin-4-yl-thiopyran-4-one], the pIC50 in data set [1] is less than 4.00; in data set [2] it was 5.10.

For `O=c1cc(-c2ccc(Cl)cc2)sc(N2CCOCC2)c1` [Compound 4, 2-(4—Chloro-phenyl)-6-morpholin-4-yl-thiopyran-4-one], the pIC50 in data set [1] is less than 4.00; in data set [2], 5.30.

`O=c1cc(-c2ccc(Br)cc2)sc(N2CCOCC2)c1` [Compound 5, 6-(4-Broinophenyl)-2-morpholin-4-yl-thiopyran-4-one] registered a melting point of 214 to 215 °C.

As to `O=c1cc(-c2cccc(Br)c2)sc(N2CCOCC2)c1` [Compound 6, 6-(3-Bromophenyl)-2-morpholin-4-yl-thiopyran-4-one], the melting point fell in the range of 181 to 182 °C.

For orientation: inhibition means how much of the control response was suppressed. As for `O=c1cc(-c2ccc(-c3cccc(O)c3)cc2)sc(N2CCOCC2)c1` [Compound 14], in data set [3], the pIC50 was not below 5.70 and the inhibition at 2 µM was not below 50%. In addition, in data set [3] (single concentration 1 μM), the inhibition at 1 µM is not below 10%.

Turning to `O=c1cc(-c2cccc(-c3ccccc3-c3ccccc3)c2)sc(N2CCOCC2)c1` [Compound 30], in data set [3], the negative-log IC50 (pIC50) is not below 5.70, the inhibition at 1 µM was not below 10% and the inhibition at 2 µM is not below 50%.

With `CC(=O)Nc1cccc(-c2cccc(-c3cc(=O)cc(N4CCOCC4)s3)c2)c1` [Compound 31], the inhibition at 1 µM in data set [3] (single concentration 1 μM) is not below 10%. Moreover, the inhibition at 2 µM in data set [3] is not below 50%.

As for `CC(=O)c1cccc(-c2cccc(-c3cc(=O)cc(N4CCOCC4)s3)c2)c1` [Compound 33], in data set [3], the pIC50 is not below 5.70, the inhibition at 1 µM was not below 10% and the inhibition at 2 µM was not below 50%.

For the compound `O=c1cc(-c2cccc(-c3cccc(-c4ccccc4)c3)c2)sc(N2CCOCC2)c1` [Compound 35], in data set [3], the pIC50 was not below 5.70, the inhibition at 1 µM is not below 10% and the inhibition at 2 µM is not below 50%.

Turning to `O=c1cc(-c2cccc(-c3cccc(CO)c3)c2)sc(N2CCOCC2)c1` [Compound 40], in data set [3], the pIC50 was not below 5.70, the inhibition at 1 µM was not below 10% and the inhibition at 2 µM is not below 50%.

Regarding `O=c1cc(-c2cccc(-c3ccc(CO)cc3)c2)sc(N2CCOCC2)c1` [Compound 41], in data set [3], the pIC50 is not below 5.70, the inhibition at 1 µM is not below 10% and the inhibition at 2 µM was not below 50%.

Regarding `O=c1cc(-c2cccc(-c3cccc(O)c3)c2)sc(N2CCOCC2)c1` [Compound 42], the inhibition at 1 µM in data set [3] (single concentration 1 μM) is not below 10%. Besides, the inhibition at 2 µM in data set [3] is not below 50%.

With `O=c1cc(-c2cccc(-c3ccc(O)cc3)c2)sc(N2CCOCC2)c1` [Compound 43], in data set [3], the pIC50 was not below 5.70 and the inhibition at 2 µM was not below 50%. Also, the inhibition at 1 µM in data set [3] (single concentration 1 μM) is not below 10%.

With `NCc1ccc(-c2cccc(-c3cc(=O)cc(N4CCOCC4)s3)c2)cc1` [Compound 46], in data set [3], the pIC50 was not below 5.70, the inhibition at 1 µM was not below 10% and the inhibition at 2 µM is not below 50%.

As to `Nc1ccc(-c2cccc(-c3cc(=O)cc(N4CCOCC4)s3)c2)cc1` [Compound 48], in data set [3], the pIC50 is not below 5.70 and the inhibition at 2 µM was not below 50%. In data set [3] (single concentration 1 μM), the inhibition at 1 µM was not below 10%.

Turning to `Nc1cccc(-c2cccc(-c3cc(=O)cc(N4CCOCC4)s3)c2)c1` [Compound 49], in data set [3], the pIC50 was not below 5.70 and the inhibition at 2 µM was not below 50%. In data set [3] (single concentration 1 μM), the inhibition at 1 µM is not below 10%.

As for `CC(=O)Nc1ccccc1-c1cccc(-c2cc(=O)cc(N3CCOCC3)s2)c1` [Compound 51], in data set [3], the pIC50 is not below 5.70 and the inhibition at 2 µM was not below 50%. Moreover, in data set [3] (single concentration 1 μM), the inhibition at 1 µM was not below 10%.

For `O=c1cc(-c2ccc(-c3cccs3)cc2)sc(N2CCOCC2)c1` [Compound 57], in data set [3], the pIC50 was not below 5.70 and the inhibition at 2 µM is not below 50%. Besides, the inhibition at 1 µM in data set [3] (single concentration 1 μM) is not below 10%.

As for `O=c1cc(-c2ccc(-c3cccc4ccccc34)cc2)sc(N2CCOCC2)c1` [Compound 59], the inhibition at 1 µM in data set [3] (single concentration 1 μM) is not below 10%. The inhibition at 2 µM in data set [3] was not below 50%.

In the case of `Cc1ccc(-c2cccc(-c3cc(=O)cc(N4CCOCC4)s3)c2)c2ccccc12` [Compound 63], in data set [3], the pIC50 is not below 5.70 and the inhibition at 2 µM was not below 50%. Also, the inhibition at 1 µM in data set [3] (single concentration 1 μM) was not below 10%.

On to `O=c1cc(-c2cccc(-c3csc4ccccc34)c2)sc(N2CCOCC2)c1` [Compound 64], for which, in data set [3], the pIC50 is not below 5.70 and the inhibition at 2 µM was not below 50%. Moreover, in data set [3] (single concentration 1 μM), the inhibition at 1 µM is not below 10%.

As to `O=c1cc(-c2cccc(-c3cccc4ccccc34)c2)sc(N2CCOCC2)c1` [Compound 69], in data set [3], the pIC50 is not below 5.70 and the inhibition at 2 µM is not below 50%. In data set [3] (single concentration 1 μM), the inhibition at 1 µM is not below 10%.

Consider `O=Cc1sccc1-c1cccc(-c2cc(=O)cc(N3CCOCC3)s2)c1` [Compound 70], for which, in data set [3], the pIC50 is not below 5.70 and the inhibition at 2 µM was not below 50%. Besides, the inhibition at 1 µM in data set [3] (single concentration 1 μM) is not below 10%.

Take `O=c1cc(N2CCOCC2)oc2c(-c3ccccc3)cccc12` [LY294002, reference compound]: the pIC50 was less than 4.00 in data set [1], approximately 6.00 at PI 3-kinase and 5.82 in data set [3]. Further, the “sensitisation of cells to the effects of IR” value in data set [4] is listed as “weakly sensitise cells to the effects of IR”.

Source of the values: patent publication US7105518B2, “Thiopyrane-4-ones as DNA protein kinase inhibitors” (priority 2001, dated 2006).
